Source: ChEMBL document CHEMBL4507268 (2021)

Assays:
Conditions in all cases: Compound concentration 1.0 uM
[1] = molecular target: Casein kinase I isoform delta (Homo sapiens) (UniProt P48730)
[2] = molecular target: G protein-coupled receptor kinase 6 (Homo sapiens) (UniProt P43250)
[3] = molecular target: Tyrosine-protein kinase Fgr (Homo sapiens) (UniProt P09769)
[4] = molecular target: Angiopoietin-1 receptor (Homo sapiens) (UniProt Q02763)
[5] = molecular target: Calcium/calmodulin-dependent protein kinase type II subunit alpha (Homo sapiens) (UniProt Q9UQM7)
Sequence of Calcium/calmodulin-dependent protein kinase type II subunit alpha (Homo sapiens) (Q9UQM7 whole entry): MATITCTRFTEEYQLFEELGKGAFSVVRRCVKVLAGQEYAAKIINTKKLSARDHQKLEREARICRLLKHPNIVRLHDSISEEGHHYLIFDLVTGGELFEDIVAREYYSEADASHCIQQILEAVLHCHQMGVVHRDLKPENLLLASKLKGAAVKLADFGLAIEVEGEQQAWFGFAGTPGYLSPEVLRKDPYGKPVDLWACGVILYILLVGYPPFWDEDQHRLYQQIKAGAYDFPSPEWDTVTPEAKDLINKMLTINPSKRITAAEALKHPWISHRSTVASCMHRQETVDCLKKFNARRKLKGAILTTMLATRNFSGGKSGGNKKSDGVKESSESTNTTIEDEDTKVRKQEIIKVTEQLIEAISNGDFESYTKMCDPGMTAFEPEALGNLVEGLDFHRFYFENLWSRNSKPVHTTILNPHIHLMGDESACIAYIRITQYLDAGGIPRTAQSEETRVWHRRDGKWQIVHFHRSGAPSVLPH

[6] = molecular target: mTOR/FKBP12A/FKBP12B (Homo sapiens) (UniProt P62942+P68106+P42345)
Sequence of mTOR/FKBP12A/FKBP12B (Homo sapiens) (P62942 2-108 limits assumed, other chains not shown): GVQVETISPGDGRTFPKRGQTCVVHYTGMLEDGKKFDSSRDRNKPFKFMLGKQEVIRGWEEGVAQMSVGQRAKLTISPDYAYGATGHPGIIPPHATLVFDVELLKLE
Sequence of mTOR/FKBP12A/FKBP12B (Homo sapiens) (P68106 whole entry partner, other chains not shown): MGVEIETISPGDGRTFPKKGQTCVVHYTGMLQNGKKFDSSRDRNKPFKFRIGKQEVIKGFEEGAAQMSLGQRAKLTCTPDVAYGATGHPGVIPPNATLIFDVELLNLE

[7] = molecular target: Casein kinase II subunit alpha (Homo sapiens) (UniProt P68400)
Sequence of Casein kinase II subunit alpha (Homo sapiens) (P68400 whole entry, looked up): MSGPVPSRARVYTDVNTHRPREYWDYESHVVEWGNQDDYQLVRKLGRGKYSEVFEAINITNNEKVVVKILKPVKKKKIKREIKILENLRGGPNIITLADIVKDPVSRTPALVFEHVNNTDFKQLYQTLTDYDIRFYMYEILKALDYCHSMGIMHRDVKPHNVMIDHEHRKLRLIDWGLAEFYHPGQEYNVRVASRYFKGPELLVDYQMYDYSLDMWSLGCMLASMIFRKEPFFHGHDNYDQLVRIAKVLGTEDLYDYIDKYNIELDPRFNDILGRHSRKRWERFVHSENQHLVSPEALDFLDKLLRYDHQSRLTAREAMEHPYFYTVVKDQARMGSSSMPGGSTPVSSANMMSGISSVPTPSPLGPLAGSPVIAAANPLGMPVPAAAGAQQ

[8] = molecular target: T1, Rhodopsin kinase GRK7 (Homo sapiens) (UniProt Q8WTQ7)
T1 sequence (whole entry): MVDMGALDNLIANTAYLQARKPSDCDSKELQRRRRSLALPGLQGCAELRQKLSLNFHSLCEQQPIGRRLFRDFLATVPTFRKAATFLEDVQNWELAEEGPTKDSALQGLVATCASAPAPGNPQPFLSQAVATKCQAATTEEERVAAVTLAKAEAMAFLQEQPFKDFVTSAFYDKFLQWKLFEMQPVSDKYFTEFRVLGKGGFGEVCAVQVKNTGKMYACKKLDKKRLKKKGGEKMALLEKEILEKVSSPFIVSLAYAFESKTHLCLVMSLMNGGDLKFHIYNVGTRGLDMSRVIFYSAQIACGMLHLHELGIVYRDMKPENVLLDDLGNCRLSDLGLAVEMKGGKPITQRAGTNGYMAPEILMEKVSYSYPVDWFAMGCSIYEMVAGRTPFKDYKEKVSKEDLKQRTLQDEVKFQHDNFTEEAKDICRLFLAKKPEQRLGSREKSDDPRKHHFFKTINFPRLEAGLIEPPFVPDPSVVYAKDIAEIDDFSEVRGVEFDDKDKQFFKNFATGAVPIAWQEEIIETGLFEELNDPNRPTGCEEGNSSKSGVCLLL

[9] = molecular target: CDK9/cyclin T1 (Homo sapiens) (UniProt O60563+P50750)
[10] = molecular target: MAP kinase-activated protein kinase 3 (Homo sapiens) (UniProt Q16644)
Sequence of MAP kinase-activated protein kinase 3 (Homo sapiens) (Q16644 whole entry, looked up): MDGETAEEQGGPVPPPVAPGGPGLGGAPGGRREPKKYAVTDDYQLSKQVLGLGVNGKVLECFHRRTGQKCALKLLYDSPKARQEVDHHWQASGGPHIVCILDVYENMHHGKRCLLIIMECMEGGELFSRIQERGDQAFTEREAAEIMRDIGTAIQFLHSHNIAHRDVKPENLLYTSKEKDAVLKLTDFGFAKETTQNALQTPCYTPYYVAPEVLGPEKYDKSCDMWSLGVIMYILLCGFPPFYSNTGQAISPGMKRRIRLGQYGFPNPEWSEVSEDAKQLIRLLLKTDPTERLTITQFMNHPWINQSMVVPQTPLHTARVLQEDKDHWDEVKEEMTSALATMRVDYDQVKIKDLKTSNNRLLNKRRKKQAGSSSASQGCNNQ

[11] = molecular target: Mitogen-activated protein kinase 8 (Homo sapiens) (UniProt P45983)
Sequence of Mitogen-activated protein kinase 8 (Homo sapiens) (P45983 whole entry): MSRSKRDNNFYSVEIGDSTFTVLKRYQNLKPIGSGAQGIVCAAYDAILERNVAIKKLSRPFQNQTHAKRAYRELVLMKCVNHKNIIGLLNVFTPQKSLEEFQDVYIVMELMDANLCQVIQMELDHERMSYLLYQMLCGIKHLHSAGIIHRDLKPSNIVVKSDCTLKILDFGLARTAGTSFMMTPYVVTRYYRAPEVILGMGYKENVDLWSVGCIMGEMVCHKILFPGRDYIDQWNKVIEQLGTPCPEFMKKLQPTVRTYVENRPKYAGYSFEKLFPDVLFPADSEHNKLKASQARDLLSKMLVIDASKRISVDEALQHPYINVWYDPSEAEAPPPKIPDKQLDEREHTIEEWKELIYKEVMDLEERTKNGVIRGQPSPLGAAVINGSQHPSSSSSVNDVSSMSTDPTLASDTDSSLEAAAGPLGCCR

[12] = molecular target: T2, Mitogen-activated protein kinase kinase kinase 5 (Homo sapiens) (UniProt Q99683)
T2 sequence (whole entry): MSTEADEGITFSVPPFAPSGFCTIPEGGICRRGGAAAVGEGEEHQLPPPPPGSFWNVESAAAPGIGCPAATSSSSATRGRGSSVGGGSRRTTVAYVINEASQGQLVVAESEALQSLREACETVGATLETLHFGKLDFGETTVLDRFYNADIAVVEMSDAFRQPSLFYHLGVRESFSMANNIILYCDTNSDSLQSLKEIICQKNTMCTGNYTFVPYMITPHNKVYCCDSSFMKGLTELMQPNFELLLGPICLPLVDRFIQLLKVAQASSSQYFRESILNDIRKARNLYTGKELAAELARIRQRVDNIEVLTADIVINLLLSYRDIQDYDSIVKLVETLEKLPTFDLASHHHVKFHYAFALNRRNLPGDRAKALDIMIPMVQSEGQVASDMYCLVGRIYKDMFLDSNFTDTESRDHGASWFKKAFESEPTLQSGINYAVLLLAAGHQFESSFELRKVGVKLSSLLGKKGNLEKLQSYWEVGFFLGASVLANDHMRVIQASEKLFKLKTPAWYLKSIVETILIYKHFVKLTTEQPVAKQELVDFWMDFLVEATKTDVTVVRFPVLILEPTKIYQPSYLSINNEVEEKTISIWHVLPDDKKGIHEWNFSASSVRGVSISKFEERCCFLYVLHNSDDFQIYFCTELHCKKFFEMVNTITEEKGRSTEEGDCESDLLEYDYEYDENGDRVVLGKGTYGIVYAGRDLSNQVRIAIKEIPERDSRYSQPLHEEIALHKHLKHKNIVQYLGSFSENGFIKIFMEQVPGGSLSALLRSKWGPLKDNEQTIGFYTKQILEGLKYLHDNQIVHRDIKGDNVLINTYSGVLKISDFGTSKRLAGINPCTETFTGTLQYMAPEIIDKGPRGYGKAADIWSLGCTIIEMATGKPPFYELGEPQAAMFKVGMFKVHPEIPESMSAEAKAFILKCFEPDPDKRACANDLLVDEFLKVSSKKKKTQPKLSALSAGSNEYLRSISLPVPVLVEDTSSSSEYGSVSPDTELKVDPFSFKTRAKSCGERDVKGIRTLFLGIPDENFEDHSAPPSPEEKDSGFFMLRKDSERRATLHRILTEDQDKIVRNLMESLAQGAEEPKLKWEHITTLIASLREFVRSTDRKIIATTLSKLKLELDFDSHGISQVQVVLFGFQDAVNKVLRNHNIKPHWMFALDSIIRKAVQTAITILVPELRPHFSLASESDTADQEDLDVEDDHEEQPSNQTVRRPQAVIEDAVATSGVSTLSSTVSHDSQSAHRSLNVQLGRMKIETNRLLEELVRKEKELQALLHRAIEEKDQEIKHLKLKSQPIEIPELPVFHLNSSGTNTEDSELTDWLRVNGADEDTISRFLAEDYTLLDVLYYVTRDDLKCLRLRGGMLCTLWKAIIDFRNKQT

Measured: % residual kinase activity

Sequence of Angiopoietin-1 receptor (Homo sapiens) (Q02763 whole entry): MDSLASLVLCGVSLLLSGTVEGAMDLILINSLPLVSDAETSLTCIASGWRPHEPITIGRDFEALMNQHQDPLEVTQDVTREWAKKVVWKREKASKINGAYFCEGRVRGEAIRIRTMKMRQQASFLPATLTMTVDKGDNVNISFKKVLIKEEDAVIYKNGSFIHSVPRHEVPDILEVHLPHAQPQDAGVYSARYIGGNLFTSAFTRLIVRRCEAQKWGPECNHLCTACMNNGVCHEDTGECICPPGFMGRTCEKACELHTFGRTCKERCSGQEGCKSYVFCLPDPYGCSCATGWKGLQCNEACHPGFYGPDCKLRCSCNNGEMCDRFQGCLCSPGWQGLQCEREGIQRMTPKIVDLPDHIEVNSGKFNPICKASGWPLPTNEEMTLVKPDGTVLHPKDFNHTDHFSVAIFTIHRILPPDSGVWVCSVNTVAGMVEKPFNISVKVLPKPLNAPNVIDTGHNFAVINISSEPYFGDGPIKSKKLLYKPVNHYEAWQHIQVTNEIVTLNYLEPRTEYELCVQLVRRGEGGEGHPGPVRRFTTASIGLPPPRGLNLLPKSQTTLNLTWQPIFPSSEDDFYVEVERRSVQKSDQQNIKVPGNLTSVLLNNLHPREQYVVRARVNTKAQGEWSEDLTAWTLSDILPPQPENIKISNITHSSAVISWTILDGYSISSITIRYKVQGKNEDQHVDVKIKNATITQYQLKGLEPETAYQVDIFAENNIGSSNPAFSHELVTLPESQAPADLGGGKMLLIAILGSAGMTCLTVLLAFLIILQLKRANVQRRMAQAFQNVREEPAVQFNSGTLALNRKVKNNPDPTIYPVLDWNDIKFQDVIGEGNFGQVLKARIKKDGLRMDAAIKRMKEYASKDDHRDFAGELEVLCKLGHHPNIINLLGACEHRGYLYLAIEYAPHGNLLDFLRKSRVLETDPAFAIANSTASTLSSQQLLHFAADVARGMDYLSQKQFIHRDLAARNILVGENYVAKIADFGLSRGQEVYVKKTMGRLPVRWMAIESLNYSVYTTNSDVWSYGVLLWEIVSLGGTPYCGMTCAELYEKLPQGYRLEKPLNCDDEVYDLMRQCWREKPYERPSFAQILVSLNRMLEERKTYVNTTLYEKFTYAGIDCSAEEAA
Sequence of Casein kinase I isoform delta (Homo sapiens) (P48730 whole entry, looked up, canonical isoform): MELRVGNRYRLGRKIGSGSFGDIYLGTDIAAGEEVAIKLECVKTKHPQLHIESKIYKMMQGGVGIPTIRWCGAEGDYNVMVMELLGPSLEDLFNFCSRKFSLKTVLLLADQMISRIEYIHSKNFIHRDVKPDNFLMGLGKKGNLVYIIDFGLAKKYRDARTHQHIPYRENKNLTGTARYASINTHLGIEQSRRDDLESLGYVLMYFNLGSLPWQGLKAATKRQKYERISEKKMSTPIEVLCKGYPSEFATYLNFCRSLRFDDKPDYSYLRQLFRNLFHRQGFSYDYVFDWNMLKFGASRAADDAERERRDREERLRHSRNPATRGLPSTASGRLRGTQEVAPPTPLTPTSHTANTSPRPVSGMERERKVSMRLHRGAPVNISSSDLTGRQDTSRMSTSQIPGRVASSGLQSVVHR
Sequence of Tyrosine-protein kinase Fgr (Homo sapiens) (P09769 2-529 limits assumed): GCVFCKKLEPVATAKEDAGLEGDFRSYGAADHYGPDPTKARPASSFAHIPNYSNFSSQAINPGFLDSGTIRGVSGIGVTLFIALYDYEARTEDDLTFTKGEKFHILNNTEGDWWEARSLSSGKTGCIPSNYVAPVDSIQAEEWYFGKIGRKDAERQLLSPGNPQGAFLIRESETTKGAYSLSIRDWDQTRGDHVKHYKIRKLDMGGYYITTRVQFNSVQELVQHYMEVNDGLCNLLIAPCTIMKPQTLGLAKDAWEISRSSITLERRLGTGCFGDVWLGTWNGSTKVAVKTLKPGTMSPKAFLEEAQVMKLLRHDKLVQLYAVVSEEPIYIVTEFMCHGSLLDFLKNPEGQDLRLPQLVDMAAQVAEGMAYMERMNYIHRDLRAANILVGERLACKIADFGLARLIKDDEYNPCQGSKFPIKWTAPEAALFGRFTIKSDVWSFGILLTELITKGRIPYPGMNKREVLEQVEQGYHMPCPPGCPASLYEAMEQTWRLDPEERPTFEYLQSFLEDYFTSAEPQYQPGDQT
Sequence of G protein-coupled receptor kinase 6 (Homo sapiens) (P43250 whole entry, looked up): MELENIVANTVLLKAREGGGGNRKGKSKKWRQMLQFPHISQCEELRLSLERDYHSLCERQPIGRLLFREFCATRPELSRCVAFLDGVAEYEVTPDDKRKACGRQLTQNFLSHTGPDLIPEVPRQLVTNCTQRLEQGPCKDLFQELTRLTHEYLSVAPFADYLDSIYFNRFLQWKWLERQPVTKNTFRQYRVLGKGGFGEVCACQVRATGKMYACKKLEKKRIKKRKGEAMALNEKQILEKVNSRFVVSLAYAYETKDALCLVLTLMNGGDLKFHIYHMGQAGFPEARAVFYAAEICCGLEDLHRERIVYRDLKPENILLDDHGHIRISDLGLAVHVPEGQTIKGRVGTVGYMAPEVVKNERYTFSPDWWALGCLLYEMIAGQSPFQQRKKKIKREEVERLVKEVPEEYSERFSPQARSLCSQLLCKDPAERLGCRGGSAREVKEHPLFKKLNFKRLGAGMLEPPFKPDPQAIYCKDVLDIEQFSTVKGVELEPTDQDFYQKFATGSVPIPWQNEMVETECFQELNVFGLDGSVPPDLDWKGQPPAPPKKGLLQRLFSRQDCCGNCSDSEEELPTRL

CN1CCN(c2cnc3c(C4CCN(C(=O)c5ccc(OC(F)(F)F)cc5N)CC4)ncnc3c2)CC1 [BAY-885]
inactive: [1] 116% | [2] 111% | [3] 98% | [4] 84% | [5] 108% | [6] 101% | [7] 92% | [8] 101% | [9] 103% | [10] 113% | [11] 104% | [12] 99%
